Data on 10 compounds can be found in patent US7897789B2, “Vitamin D receptor modulators” (Eli Lilly and Company, priority 2003, dated 2011).

In one data set the test system is DBF mice. The data set can be described thus: Mouse hypercalcemia assay. The note with it: oral gavage for 6 days; comparison compounds, Table 3.
The test system of the next data set is rat osteocalcin promoter. The data set can be described thus: OCN (osteocalcin) promoter assay. The class given is cell-based. The note with it: RG-15 (ROS 17/2.8) cells. On the procedure:
3. The OCN (Osteocalcin) Promoter Assay
The OCN Promoter Assay is an indicator and marker for osteoporosis. […] Preferred assay results are less than 50 nM.
(3) Materials and Method for the OCN Promoter Assay:
The activation of osteocalcin by VDR ligands was evaluated in a rat osteoblast-like cell line RG-15 (ROS 17/2.8) stably expressing rat osteocalcin promoter fused with luciferase reporter gene. […] Confluent RG-15 cells maintained in DMEM/F-12 medium (3:1) containing 5% FBS, 300 μg/ml G418 and at 37° C. under 5% CO2/95% air atmosphere were trypsinized (0.25% trypsin) and plated into white opaque 96-well cell culture plates (25000 cells/well). After 24 hr, cells (in DMEM/F-12 medium+2% FBS) were treated with various concentrations of compounds, dissolved in DMSO. The final DMSO concentration remained at 0.01% (v/v). After 48 hr treatment, the medium was removed, cells were lysed with 50 μl of lysis buffer (From Luciferase reporter assay system, Roche Diagnostics, Indianapolis, Ind.) and assayed for luciferase activity using the Luciferase Reporter Gene Assay kit from Boehringer Mannheim as per manufacturer's specifications.

For the next data set, the target named is T1, VDR (Homo sapiens, UniProt P11473).
T1 construct: the receptor expression vector pGal4-VDR-LBD (10 ng); expressed in transfected cells; host or cells: Caco-2 cells
T1 sequence (P11473 127-423 limits assumed): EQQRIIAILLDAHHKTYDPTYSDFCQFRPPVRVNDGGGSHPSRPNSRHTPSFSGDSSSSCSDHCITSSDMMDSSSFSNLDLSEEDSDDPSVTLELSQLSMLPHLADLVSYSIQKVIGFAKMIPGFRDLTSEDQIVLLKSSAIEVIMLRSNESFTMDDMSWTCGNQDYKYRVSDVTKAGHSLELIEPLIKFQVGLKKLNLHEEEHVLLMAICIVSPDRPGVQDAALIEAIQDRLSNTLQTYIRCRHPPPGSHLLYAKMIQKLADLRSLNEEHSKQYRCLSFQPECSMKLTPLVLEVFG
The experiment in a line: Caco-2 cell co-transfection assay (VDR CTF). The class given is cell-based. The note with it: Caco-2 cells, pGal4-VDR-LBD luciferase co-transfection; Table 1. On the procedure:
2. The Caco-2 Cell Co-Transfection Assay:
The Caco-2 cell assay is an indicator for the undesirable condition of hypercalcemia. This co-transfection assay is a surrogate assay for in vivo calcemic activity of VDR ligands. […] Preferred assay results are greater than 1000 nM.
(2) Materials and Method for The Caco-2 Cell Assay:
Caco-2 cells, grown in phenol red free, DMEM (Invitrogen, Carlsbad, Calif.) containing 10% charcoal-stripped FCS (Hyclone, Logan, Utah), were transfected with Fugene 6 reagent (Roche Diagnostics, Indianapolis, Ind.). Cells (5000/well) were plated 18 h before transfection in a 96 well plate. The Cells were transfected with Gal4-responsive reporter pFRLuc (150 ng, Stratagene, La Jolla Calif.) and the receptor expression vector pGal4-VDR-LBD (10 ng), along with Fugene 6 reagent (0.2 μl/well). The DNA-Fugene complex was formed by incubating the mixture for 30 min at room temperature. The cells were transfected in triplicate for 5 h, and treated with various concentrations of VDR ligands (form 0.01 nM to 10,000 nM concentration range) 18 h post-transfection. The luciferase activity was quantified using Steady-Glo reagent kit (Promega, Madison, Wis.) as per manufacturer's specifications.

The target of the next data set is T2, RXR-VDR heterodimer (Homo sapiens, UniProt P11473).
T2 construct: Add the Gal4-RXR-DEF and VP16-VDR-LBD; expressed in transfected cells; host or cells: SaOS-2 cells
T2 sequence (P11473 127-423 limits assumed): T1 sequence (P11473 127-423 limits assumed)
T2 sequence (P19793 201-462 partner limits assumed): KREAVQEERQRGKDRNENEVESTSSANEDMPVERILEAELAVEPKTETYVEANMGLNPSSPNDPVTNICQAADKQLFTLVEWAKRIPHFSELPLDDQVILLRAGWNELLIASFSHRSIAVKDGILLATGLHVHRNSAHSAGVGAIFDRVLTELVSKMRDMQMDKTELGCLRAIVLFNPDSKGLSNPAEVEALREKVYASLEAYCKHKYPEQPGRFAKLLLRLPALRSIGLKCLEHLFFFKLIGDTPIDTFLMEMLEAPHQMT
The data set can be described thus: RXR-VDR heterodimerization assay (SaOS-2 cells). The class given is cell-based. The note with it: Gal4-RXR / VP16-VDR-LBD luciferase reporter, Table 1. On the procedure:
1. The RXR-VDR HeterodimerAssay:
This assay provides the VDR activity of a test compound.
(1) Materials and Method for RXR-VDR Heterodimerization Assay:
Luciferase Assay Reagent: • Use Steady-Glo Luciferase Reagent from Promega (Cat #E2550) Consists of: a. E2533 Assay Substrate, lyopholized product and b. E2543 Assay Buffer. • Thaw at room temperature • Store Cell Harvesting Aspirate media from culture flask, rinse cells with HBSS and aspirate. Add trypsin and incubate. When cells appear detached, resuspend cells in growth media. Transfer into a new flask with fresh growth media for passaging the cells. Plate well plates and two extra plates A. Cell Count Mix the cell suspension using pipette Use Hematocytometer to count the cells Load cell suspension onto the hemocytometer chamber Count cells. […] In sterile flask add cell suspension to plating media. Mix. Add cells/well. Place the cells in the incubator. Cells should be about 75% confluent prior to transfection. DAY 2: Transfection Step 1: DNA and Media Add plain DMEM media to tubes for mixing the DNA Add the Reporter gene pFR-LUC Add the Gal4-RXR-DEF and VP16-VDR-LBD Step 2: FuGENE and Media Prepare plain DMEM media in a ubes for mixing FuGENE Add FuGENE 6 Transfection Reagent Incubate Step 3: FuGENE, DNA and Media Complex Add FuGENE Media complex from step 2 to DNA Media complex from step 1 Incubate Step 4: FuGENE, DNA and Media Complex to-well plate Add FuGENE-DNA-Media complex from step 3 to each plate Incubate. […] Day 4: Luciferase Assay Read the plates after drug treatment Remove part of media from all the wells and leave remainder Add Steady-Glo Luciferase Reagent mixture/wells Incubate Count each well using a Luminescence counter, Top Count NXT by Packard
Set a delay between plates to reduce the background.

Another data set relates to KERtr cells. The experiment in a line: Keratinocyte proliferation assay. The class given is cell-based. To be noted: Homo sapiens, 72 h, BrdU incorporation, Table 2, read-out: Kera. Prolif. IC50. As to the method: 5. The Keratinocyte Proliferation Assay
This Assay is indicative for the treatment of psoriasis.
(5) The Keratinocyte Proliferation Assay:
KERtr cells (Human skin keratinocyte transformed with a retrovirus vector, obtained from ATCC) were plated in 96-well flat-bottomed plates (3000 cells/well) in 100 μl keratinocyte serum free medium supplemented with bovine pituitary extract in the absence of EGF (Life Technologies, Rockville, Md.) and incubated at 37° C. for two days. The cells were treated with various concentrations of VDR ligands (ten-fold serial dilution from 10,000 nM to 0.1 nM in triplicate), dissolved in 100 μl keratinocyte serum free medium supplemented with bovine pituitary extract in the absence of EGF and incubated at 37° C. for 72 hr. […] Potency values (IC50) values were determined as the concentration (nM) of compound that elicited a half-maximal response.

The mark [1] stands for this setting: Rattus norvegicus, 48 h, 48 hr treatment, Table 1.

“And” between values parts separate entries of the source, which are not always exact repeats. Equal entries are not always repeated.

Excerpt for DBF mice: The Mouse Hypercalcemia Assay
The Mouse Hypercalcemia Assay is a six day hypercalcemia test for toxicity and selectivity.
(4) Materials and Method for the Mouse Hypercalcemia Assay:
Weanling, virus-antibody-free, five to six weeks old female DBF mice (Harlan, Indianapolis, Ind.) are used for all the studies. Animals are allowed to acclimate to local vivarium conditions for 2 days. […] The animals then are divided into groups with 4-5 mice per group. Different doses of test compounds prepared in 10% Ethanol and 90% sesame oil are administered to mice orally via gavage for 6 days. 1α-25(OH)2D3 0.5 μg/kg/d was also given to one group of mice as the positive control. […] Raw data of group differences is assessed by analysis of variance (ANOVA) using Fisher's protected least significant difference (PLSD) where the significance level was P<0.05.

As for `CCC(CC)(c1ccc(OCC(=O)C(C)(C)C)c(C)c1)c1ccc(OC[C@H](O)C(C)(C)C)c(C)c1` [EE, reference compound], the “Mouse Hypercal” value in the data set on DBF mice was 1000 µg/kg/day. Moreover, the EC50 in the data set on rat osteocalcin promoter (Rattus norvegicus, comparison compounds, Table 3) amounted to 341 nM.
For the compound `CCC(CC)(c1ccc(OCC(O)C(C)(C)C)c(C)c1)c1ccc2sc(C(=O)O)cc2c1` (stereo not drawn) [Ex 14, 5-{1-ethyl-1-[4-(2-hydroxy-3,3-dimethyl-butoxy)-3-methyl-phenyl]-propyl}-benzo[b]thiophene-2-carboxylic acid], the values for the EC50 on VDR and with rat osteocalcin promoter (setting [1]) were 941 nM and 6 nM, respectively.
With `CCC(CC)(c1ccc(OCC(O)C(C)(C)C)c(C)c1)c1ccc2sc(C(=O)NCC(=O)O)cc2c1` (stereo not drawn) [Ex 16, [(5-{1-ethyl-1-[4-(2-hydroxy-3,3-dimethyl-butoxy)-3-methyl-phenyl]-propyl}-benzo[b]thiophene-2-carbonyl)-amino]-acetic acid], the EC50 on VDR was 938 nM; at RXR-VDR heterodimer it was 254 nM and 108 nM. In the data set with KERtr cells, the IC50 amounted to 384 nM.
In the case of `CCC(O)(CC)COc1ccc(C(CC)(CC)c2cc3ccc(C(=O)O)cc3s2)cc1C` [Ex 22, 2-{1-Ethyl-1-[4-(2-ethyl-2-hydroxy-butoxy)-3-methyl-phenyl]-propyl}benzo[b]thiophene-6-carboxylic acid], the EC50 at VDR was 1060 nM; on RXR-VDR heterodimer, 458 nM and 139 nM. Besides, the concentration for half-maximal inhibition (IC50) in the data set on KERtr cells was 154 nM.
Consider `CCOC(=O)c1cc2cc(C(CC)(CC)c3ccc(OCC4(C(C)(C)C)OCCO4)c(C)c3)ccc2s1` [Ex 23, 5-{1-[4-(2-tert-Butyl-[1,3]dioxolan-2-ylmethoxy)-3-methyl-phenyl]-1-ethyl-propyl}-benzo[b]thiophene-2-carboxylic acid ethyl ester], for which the EC50 in the data set on rat osteocalcin promoter (setting [1]) worked out at 161 nM.
For the compound `CCC(CC)(c1ccc(OCC(=O)C(C)(C)C)c(C)c1)c1cc2cc(OS(C)(=O)=O)ccc2s1` [Ex 24, methanesulfonic acid 2-{1-[4-(3,3-dimethyl-2-oxo-butoxy)-3-methyl-phenyl]-1-ethyl-propyl}-benzo[b]thiophen-5-yl ester], the EC50 at RXR-VDR heterodimer stood at 695 nM; in the data set with rat osteocalcin promoter (setting [1]), 215 nM. Also, the IC50 in the data set on KERtr cells was found to be 232 nM.
In the case of `CCC(CC)(c1ccc(OCC(O)C(C)(C)C)c(C)c1)c1ccc2cc(C(=O)N(C)C)sc2c1` (stereo not drawn) [Ex. 4, 6-{1-ethyl-1-[4-(2-hydroxy-3,3-dimethyl-butoxy)-3-methyl-phenyl]-propyl}-benzo[b]thiophene-2-carboxylic acid dimethylamide], the EC50 on VDR was determined as 555 nM; in the data set on rat osteocalcin promoter (48 hr treatment, Table 1), 15 nM; with rat osteocalcin promoter (setting [1]), 20 nM.
Regarding `CCC(CC)(c1ccc(OCC(=O)C(C)(C)C)c(C)c1)c1cc2ccc(C(=O)N(C)C)cc2s1` [Ex. 9, 2-{1-[4-(3,3-Dimethyl-2-oxo-butoxy)-3-methyl-phenyl]-1-ethyl-propyl}-benzo[b]thiophene-6-carboxylic acid dimethylamide], the EC50 at VDR was determined as 1270 nM; in the data set on rat osteocalcin promoter (48 hr treatment, Table 1) it was 35 nM; with rat osteocalcin promoter (setting [1]), 41 nM. In the data set with KERtr cells, the IC50 was 1000 nM.
In the case of `CCC(CC)(c1ccc(OCC(O)C(C)(C)C)c(C)c1)c1cc2ccc(C(=O)N(C)C)cc2s1` (stereo not drawn) [Ex. 10, 2-{1-Ethyl-1-[4-(2-hydroxy-3,3-dimethyl-butoxy)-3-methyl-phenyl]-propyl}-benzo[b]thiophene-6-carboxylic acid dimethylamide], the EC50 on VDR came out at 690 nM; on RXR-VDR heterodimer it was 323 nM; with rat osteocalcin promoter (48 hr treatment, Table 1), 18 nM; with rat osteocalcin promoter (setting [1]), 24 nM. Moreover, the IC50 in the data set on KERtr cells came out at 573 nM.
Take `CCC(CC)(c1ccc(OCC(O)C(C)(C)C)c(C)c1)c1cc2ccc(C(=O)NCC(=O)O)cc2s1` (stereo not drawn) [Ex. 12, [(2-{1-Ethyl-1-[4-(2-hydroxy-3,3-dimethyl-butoxy)-3-methyl-phenyl]-propyl}-benzo[b]thiophene-6-carbonyl)-amino]-acetic acid]: the EC50 on VDR was 137 nM; on RXR-VDR heterodimer, 19 nM and 2 nM; in the data set with rat osteocalcin promoter (setting [1]) it was 0.3 nM. In addition, in the data set with KERtr cells, the IC50 stood at 1 nM.

By EC50 is commonly meant the concentration at which the effect is half-maximal. The IC50 is the point on the concentration scale where inhibition reaches its midpoint.
